These results are taken from PubChem BioAssay AID652281 (Sanford-Burnham Center for Chemical Genomics, 2013).

Each structure is given as a SMILES string. Activity calls are given as the source filed them.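 Rule for the calls: active = compounds toxic to worms, with a half-maximal toxicity dose of 25 µM or lower; inactive = the rest.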

In this series the test system is C. elegans VP596 worm health composite score, 20-22 h. The experiment in a line: C. elegans worm health toxicity scoring, SAR follow-up, cytotoxicity control for SKN-1 inhibitor project, whole organism, strain VP596, composite health score, round 2 (AID 652281).
Turning to `CCOc1cc(CN2CCCC2)cc(Cl)c1OCc1ccc(Cl)cc1`, the IC50 – broadly, the concentration needed to halve the response being measured – is > 64 µM (inactive).

`CCOc1cc(CN2CCCCC2)cc(Cl)c1OCc1ccc(F)cc1`: the IC50 is > 64 µM (inactive).

With `CCOc1cc(CN(C(C)=O)C2CCCC2)cc(Cl)c1OCc1ccc(Cl)cc1`, the IC50 is > 64 µM (inactive).

As to `CCOc1cc(CNCC2CC2)cc(Cl)c1OCc1ccc(Cl)cc1`, the IC50 was > 64 µM (inactive).

On to `CCOc1cc(CN2CCOCC2)cc(Cl)c1OCc1ccc(F)cc1`, for which the IC50 was > 64 µM (inactive).

Take `CCOc1cc(CNC2CCCC2)cc(Cl)c1OCc1ccc(Cl)cc1F`: the IC50 was > 64 µM (inactive).

On to `CCOc1cc(CN2CCN(C)CC2)cc(Cl)c1OCc1ccc(F)cc1`, for which the IC50 was > 64 µM (inactive).

Regarding `CCOc1cc(CNC2CCCC2)cc(Cl)c1OCc1ccc(Br)cc1`, the IC50 is > 64 µM (inactive).

For `CCOc1cc(CNC)cc(Cl)c1OCc1ccc(Cl)cc1`, the IC50 is > 64 µM (inactive).

On to `CCOc1cc(CNC2CC2)cc(Cl)c1OCc1ccc(C#N)cc1`, for which the IC50 is > 64 µM (inactive).

Consider `Clc1ccc(COc2c(Cl)cc(CNC3CCCC3)cc2Cl)cc1`, for which the IC50 is > 64 µM (inactive).

As for `CCOc1cc(CN2CCCCC2)cc(Cl)c1OCc1ccc(Cl)cc1`, the IC50 was > 64 µM (inactive).

As to `C#CCNCc1cc(Cl)c(OCc2ccc(Cl)cc2)c(OCC)c1`, the IC50 was > 64 µM (inactive).

Turning to `CCOc1cc(CNC2CCCC2)cc(Cl)c1OCc1ccc(C#N)cc1`, the IC50 is > 64 µM (inactive).

Take `CCOc1cc(CNC2CC2)cc(Cl)c1OCc1ccc(Br)cc1`: the IC50 was > 64 µM (inactive).

Turning to `COc1cc(CNC2CCCC2)cc(F)c1OCc1ccc(Cl)cc1`, the IC50 is > 64 µM (inactive).

For `CCOc1cc(CN2CCN(C)CC2)cc(Cl)c1OCc1ccc(Cl)cc1`, the IC50 is > 64 µM (inactive).

Turning to `CCCNCc1cc(Cl)c(OCc2ccc(Cl)cc2)c(OCC)c1`, the IC50 is > 64 µM (inactive).

Turning to `C=CCNCc1cc(Cl)c(OCc2ccc(Cl)cc2)c(OCC)c1`, the IC50 is > 64 µM (inactive).

Take `COc1cc(CNC2CCCC2)cc(Br)c1OCc1ccc(Cl)cc1`: the IC50 is > 64 µM (inactive).

For the compound `CCOc1cc(CNC2CC2)cc(Cl)c1OCc1ccc(Cl)cc1`, the IC50 is > 64 µM (inactive).

Turning to `Cc1cc(CNC2CCCC2)cc(C)c1OCc1ccc(Cl)cc1`, the IC50 is > 64 µM (inactive).

As for `CCOc1cc(CNC2CC2)cc(Cl)c1OCc1ccc(Cl)cc1F`, the IC50 was > 64 µM (inactive).

As to `CCOc1cc(CN(C)C2CCCC2)cc(Cl)c1OCc1ccc(Cl)cc1`, the IC50 was > 64 µM (inactive).

As to `COc1cc(CNC2CCCC2)cc(Cl)c1OCc1ccc(Cl)cc1`, the IC50 was > 64 µM (inactive).

Consider `CCOc1cc(CN2CCCC2)cc(Cl)c1OCc1ccc(F)cc1`, for which the IC50 is > 64 µM (inactive).

`CCOc1cc(CN2CCOCC2)cc(Cl)c1OCc1ccc(Cl)cc1`: the IC50 was > 64 µM (inactive).
